Results published in patent publication US20070154981A1, “Insulin-producing cells derived from stem cells” (THE BOARD of TRUSTEES of the LELAND STANFORD JUNIOR …, priority 2003, published 2007).

System: human NS cells
Test: Insulin content of IPCCs derived from human NS cells, by ELISA
Type: cell-based
Source text: Human NS cells from StemCells Inc. (Palo Alto, Calif.). Until stage 1, cells are maintained in neurospheres as described in Uchida et al, 2000, Proc Natl Acad Sci U S A. 2000 Dec. 19;97(26):14720-5. […]

In the case of `CC1=C(/C=C/C(C)=C/C=C/C(C)=C/C(=O)O)C(C)(C)CCC1` [retinoic acid, all-trans-Retinoic acid], the “insulin levels relative to levels found in human pancreatic islets” value (1 micromolar retinoic acid for 6 days, stage 2 IPCCs, ELISA) is reported as 0.1% and the “insulin production compared with cells cultured with SHH and retinoic acid” value (retinoic acid alone versus SHH and retinoic acid) is reported as “higher level of insulin production”.
